These results are taken from US6495330B1, “Materials and methods relating to the diagnosis and treatment of pre-eclampsia and diabetes” (Rodaris Pharmaceuticals Limited, priority 1996, dated 2002).

This experiment has as its system rat adipocytes. Kind of experiment: IPG A-type bioassay: stimulation of lipogenesis ([U14C] glucose into lipids) in adipocytes. It is filed as cell-based. As to conditions: insulin standard assayed at the same time. The protocol: The activity of P- and A-type IPGs in urine and placental extracts were studied using specific bioassay procedures. IPG P-type was determined using the activation of PDH phosphatase. The PDH complex and PDH phosphatase (metal-dependent form) were prepared from beef heart as described by Lilley et al. and the assay of the activation of the phosphatase was performed by the spectrophotometric variant of the two-stage system described by these authors. This assay is considered to be a characteristic feature of IPG P-type (see Larner et al.) . IPG A-type was determined by the stimulation of lipogenesis as measured by the incorporation of [U^14C] glucose into the lipids of adipocytes isolated from epididymal fat pads by the method of Rodbell. A high degree of specificity for IPG A-type was found for this bioassay.
A straight line relationship between added IPGs and the stimulation of PDH phosphatase activity (IPG P-type) and lipogenesis in intact adipocytes (IPG A-type) was obtained; this relationship held at least up to a stimulation of +250%. These observations provided a basis for a unit to be defined and used for the purpose of comparison of yields of IPGs from different tissues and urine samples.
A unit of IPG is defined as the amount causing a 50% activation in the basal level of the test system.

On to insulin [insulin standard], for which the “stimulation of lipogenesis above base-line” value is given as “+258%”.
